In ChEMBL document CHEMBL3244225, “Synthesis and biological activity of some vinyl-substituted 2-nitroimidazoles” (J Med Chem, 1977):
In brackets after ≈: the same amount, converted by molar mass.

Experiments:
[1] = system: Staphylococcus aureus; experiment: Antimicrobial activity against Staphylococcus aureus Tour by tube dilution method; format: functional
[2] = system: Klebsiella pneumoniae; experiment: Antimicrobial activity against Klebsiella pneumoniae I.S.M. by tube dilution method; format: functional
[3] = system: Trichophyton mentagrophytes; experiment: Antimicrobial activity against Trichophyton mentagrophytes SKF 17410 by tube dilution method; format: functional
[4] = system: Salmonella typhimurium; experiment: Antimicrobial activity against Salmonella typhimurium Kh by tube dilution method; format: functional, Salmonella enterica subsp. enterica serovar Typhimurium; conditions: Salmonella enterica
[5] = system: Escherichia coli; experiment: Antimicrobial activity against Escherichia coli SKF 12140 by tube dilution method; format: functional
[6] = system: Trichomonas vaginalis; experiment: Trichomonastatic activity against Trichomonas vaginalis by tube dilution method; format: functional
[7] = system: Mycobacterium tuberculosis; experiment: Antimicrobial activity against Mycobacterium tuberculosis ATCC 9360 by tube dilution method; format: functional
[8] = system: Mycoplasmoides gallisepticum; experiment: Antimicrobial activity against Mycoplasma gallisepticum H21 C.Z.B. by tube dilution method; format: functional
[9] = system: Pseudomonas aeruginosa; experiment: Antimicrobial activity against Pseudomonas aeruginosa ATCC 10145 by tube dilution method; format: functional
[10] = system: Streptococcus pyogenes; experiment: Antimicrobial activity against Streptococcus haemolyticus C 203 by tube dilution method; format: functional
[11] = system: Candida albicans; experiment: Antimicrobial activity against Candida albicans SKF 2270 by tube dilution method; format: functional
[12] = system: Streptococcus pneumoniae; experiment: Antimicrobial activity against Diplococcus pneumoniae UC41 by tube dilution method; format: functional
[13] = system: Proteus vulgaris; experiment: Antimicrobial activity against Proteus vulgaris X19 H ATCC 881 by tube dilution method; format: functional
[14] = system: Shigella sonnei; experiment: Antimicrobial activity against Shigella sonnei ATCC 9290 by tube dilution method; format: functional
[15] = system: Clostridium perfringens; experiment: Antimicrobial activity against Clostridium perfringens ISS 30543 by tube dilution method; format: functional
[16] = system: Trichomonas vaginalis; experiment: Trichomonacidal activity against Trichomonas vaginalis by tube dilution method; format: functional
[17] = system: Trichomonas vaginalis; experiment: Ratio of metronidazole ED50 to compound ED50 for Trichomonas vaginalis infected in sc dosed mouse; format: functional
[18] = Toxicity in po dosed mouse infected with Trichomonas vaginalis; format: organism-based; conditions: in vivo

Structure (SMILES) | MIC [1] | MIC [2] | MIC [3] | MIC [4] | MIC [5] | MIC [6] | MIC [7] | MIC [8] | MIC [9] | MIC [10] | MIC [11] | MIC [12] | MIC [13] | MIC [14] | MIC [15] | MIC [16] | Ratio ED50 [17] | LD50 [18]
CCCCC(C(O)c1cnc([N+](=O)[O-])n1C)[N+](=O)[O-] (stereo not given) | 50 µg/mL (≈ 184 µM) | 100 µg/mL (≈ 367 µM) | 50 µg/mL (≈ 184 µM) | 50 µg/mL (≈ 184 µM) | 50 µg/mL (≈ 184 µM) | > 100 µg/mL | 50 µg/mL (≈ 184 µM) | 50 µg/mL (≈ 184 µM) | 20 µg/mL (≈ 73.5 µM) | > 100 µg/mL | 50 µg/mL (≈ 184 µM) | 100 µg/mL (≈ 367 µM) | 100 µg/mL (≈ 367 µM) | 50 µg/mL (≈ 184 µM) | 20 µg/mL (≈ 73.5 µM) |  |  | 
Cc1cc(-c2cnc([N+](=O)[O-])n2C)n(CCO)n1 | 20 µg/mL (≈ 79.6 µM) | > 100 µg/mL | > 100 µg/mL | > 100 µg/mL | 50 µg/mL (≈ 199 µM) | 10 µg/mL (≈ 39.8 µM) | > 100 µg/mL | > 100 µg/mL | > 100 µg/mL | 50 µg/mL (≈ 199 µM) | > 100 µg/mL | 50 µg/mL (≈ 199 µM) | > 100 µg/mL | > 100 µg/mL | 100 µg/mL (≈ 398 µM) | 50 µg/mL (≈ 199 µM) |  | 
CC(/C=C/c1cnc([N+](=O)[O-])n1C)=N\N1CCCC(O)C1 (stereo not given) | 20 µg/mL (≈ 68.2 µM) | > 100 µg/mL | 100 µg/mL (≈ 341 µM) | > 100 µg/mL | 100 µg/mL (≈ 341 µM) | 20 µg/mL (≈ 68.2 µM) | 50 µg/mL (≈ 170 µM) | > 100 µg/mL | > 100 µg/mL | > 100 µg/mL | > 100 µg/mL | 100 µg/mL (≈ 341 µM) | > 100 µg/mL | > 100 µg/mL | 20 µg/mL (≈ 68.2 µM) | 50 µg/mL (≈ 170 µM) |  | 
CCOC(=O)/C=C/c1cnc([N+](=O)[O-])n1C | > 100 µg/mL | > 100 µg/mL | 100 µg/mL (≈ 444 µM) | > 100 µg/mL | 50 µg/mL (≈ 222 µM) | 20 µg/mL (≈ 88.8 µM) | 50 µg/mL (≈ 222 µM) | 100 µg/mL (≈ 444 µM) | > 100 µg/mL | 100 µg/mL (≈ 444 µM) | > 100 µg/mL | 100 µg/mL (≈ 444 µM) | > 100 µg/mL | > 100 µg/mL | 50 µg/mL (≈ 222 µM) | 100 µg/mL (≈ 444 µM) |  | 
CC(/C=C/c1cnc([N+](=O)[O-])n1C)=N\N1CCN(CCO)CC1 | 50 µg/mL (≈ 155 µM) | > 100 µg/mL | > 100 µg/mL | > 100 µg/mL | 100 µg/mL (≈ 310 µM) | 20 µg/mL (≈ 62 µM) | 50 µg/mL (≈ 155 µM) | > 100 µg/mL | > 100 µg/mL | 100 µg/mL (≈ 310 µM) | > 100 µg/mL | 100 µg/mL (≈ 310 µM) | > 100 µg/mL | > 100 µg/mL | 5 µg/mL (≈ 15.5 µM) | 50 µg/mL (≈ 155 µM) |  | 
Cc1ccc(S(=O)(=O)OCCn2c(C)cnc2[N+](=O)[O-])cc1 | > 100 µg/mL | > 100 µg/mL | > 100 µg/mL | > 100 µg/mL | > 100 µg/mL | 50 µg/mL (≈ 154 µM) | 100 µg/mL (≈ 307 µM) | > 100 µg/mL | > 100 µg/mL | > 100 µg/mL | > 100 µg/mL | > 100 µg/mL | > 100 µg/mL | > 100 µg/mL | 50 µg/mL (≈ 154 µM) | 100 µg/mL (≈ 307 µM) | >7 | > 1000 mg/kg
Cc1cnc(/N=C/C=C/c2cnc([N+](=O)[O-])n2C)n1C | > 20 µg/mL | > 20 µg/mL | > 20 µg/mL | > 20 µg/mL | > 20 µg/mL | 50 µg/mL (≈ 182 µM) | > 20 µg/mL | > 20 µg/mL | > 20 µg/mL | > 20 µg/mL | > 20 µg/mL | > 20 µg/mL | > 20 µg/mL | > 20 µg/mL | 10 µg/mL (≈ 36.5 µM) | 100 µg/mL (≈ 365 µM) |  | 
CCCC/C(=C\c1cnc([N+](=O)[O-])n1C)[N+](=O)[O-] | 2 µg/mL (≈ 7.87 µM) | 100 µg/mL (≈ 393 µM) | 1 µg/mL (≈ 3.93 µM) | 50 µg/mL (≈ 197 µM) | 10 µg/mL (≈ 39.3 µM) | 10 µg/mL (≈ 39.3 µM) | 2 µg/mL (≈ 7.87 µM) | 5 µg/mL (≈ 19.7 µM) | 100 µg/mL (≈ 393 µM) | 5 µg/mL (≈ 19.7 µM) | 20 µg/mL (≈ 78.7 µM) | 2 µg/mL (≈ 7.87 µM) | 50 µg/mL (≈ 197 µM) | 50 µg/mL (≈ 197 µM) | 5 µg/mL (≈ 19.7 µM) | 50 µg/mL (≈ 197 µM) | >2.9 | 500 mg/kg
CC(=O)c1cnc([N+](=O)[O-])n1C | 50 µg/mL (≈ 296 µM) | 100 µg/mL (≈ 591 µM) | 50 µg/mL (≈ 296 µM) | 100 µg/mL (≈ 591 µM) | 10 µg/mL (≈ 59.1 µM) | 50 µg/mL (≈ 296 µM) | 50 µg/mL (≈ 296 µM) | 100 µg/mL (≈ 591 µM) | > 100 µg/mL | 100 µg/mL (≈ 591 µM) | > 100 µg/mL | 20 µg/mL (≈ 118 µM) | 100 µg/mL (≈ 591 µM) | 50 µg/mL (≈ 296 µM) | 20 µg/mL (≈ 118 µM) | > 100 µg/mL |  | 
CC(/C=C/c1cnc([N+](=O)[O-])n1C)=N\NC(N)=S | 10 µg/mL (≈ 37.3 µM) | > 50 µg/mL | > 50 µg/mL | > 50 µg/mL | > 50 µg/mL | 50 µg/mL (≈ 186 µM) | 10 µg/mL (≈ 37.3 µM) | > 50 µg/mL | > 50 µg/mL | 20 µg/mL (≈ 74.5 µM) | > 50 µg/mL | > 50 µg/mL | > 50 µg/mL | > 50 µg/mL | 5 µg/mL (≈ 18.6 µM) | 100 µg/mL (≈ 373 µM) |  | 
O=C1CN(/N=C/c2ccc([N+](=O)[O-])o2)C(=O)N1 [NITROFURANTOIN] | 10 µg/mL (≈ 42 µM) | 50 µg/mL (≈ 210 µM) |  | 20 µg/mL (≈ 84 µM) | 5 µg/mL (≈ 21 µM) |  | 50 µg/mL (≈ 210 µM) |  | > 100 µg/mL |  |  | 1 µg/mL (≈ 4.2 µM) | 100 µg/mL (≈ 420 µM) | 10 µg/mL (≈ 42 µM) |  |  |  | 
Cn1c(C=O)cnc1[N+](=O)[O-] | 50 µg/mL (≈ 322 µM) | 10 µg/mL (≈ 64.5 µM) | 10 µg/mL (≈ 64.5 µM) | 2 µg/mL (≈ 12.9 µM) | 10 µg/mL (≈ 64.5 µM) | 100 µg/mL (≈ 645 µM) | 10 µg/mL (≈ 64.5 µM) |  | 10 µg/mL (≈ 64.5 µM) | 50 µg/mL (≈ 322 µM) | 50 µg/mL (≈ 322 µM) | 20 µg/mL (≈ 129 µM) | 50 µg/mL (≈ 322 µM) | 20 µg/mL (≈ 129 µM) | 10 µg/mL (≈ 64.5 µM) | > 100 µg/mL |  | 
Cn1c(/C=[N+](/C)[O-])cnc1[N+](=O)[O-] | 50 µg/mL (≈ 272 µM) | 50 µg/mL (≈ 272 µM) | > 100 µg/mL | 20 µg/mL (≈ 109 µM) | 10 µg/mL (≈ 54.3 µM) | 100 µg/mL (≈ 543 µM) | 50 µg/mL (≈ 272 µM) | 20 µg/mL (≈ 109 µM) | 100 µg/mL (≈ 543 µM) | 50 µg/mL (≈ 272 µM) | > 100 µg/mL | 50 µg/mL (≈ 272 µM) | 20 µg/mL (≈ 109 µM) | 20 µg/mL (≈ 109 µM) | 10 µg/mL (≈ 54.3 µM) | > 100 µg/mL |  | 
Br.CC(/C=C/c1cnc([N+](=O)[O-])n1C)=N\NC1=NCCN1 | 50 µg/mL | > 100 µg/mL | > 100 µg/mL | > 100 µg/mL | 100 µg/mL | 20 µg/mL | > 100 µg/mL | 100 µg/mL | > 100 µg/mL | 20 µg/mL | > 100 µg/mL | 20 µg/mL | > 100 µg/mL | > 100 µg/mL | 100 µg/mL | 100 µg/mL |  | 
CC(/C=C/c1cnc([N+](=O)[O-])n1C)=N\N(C)C | 100 µg/mL (≈ 421 µM) | > 100 µg/mL | > 100 µg/mL | > 100 µg/mL | 50 µg/mL (≈ 211 µM) | 20 µg/mL (≈ 84.3 µM) | 20 µg/mL (≈ 84.3 µM) | > 100 µg/mL | > 100 µg/mL | > 100 µg/mL | > 100 µg/mL | > 100 µg/mL | > 100 µg/mL | > 100 µg/mL | 10 µg/mL (≈ 42.1 µM) | 50 µg/mL (≈ 211 µM) |  | 
COC(=O)c1cnc([N+](=O)[O-])n1C | 50 µg/mL (≈ 270 µM) | > 100 µg/mL | > 100 µg/mL | 100 µg/mL (≈ 540 µM) | 20 µg/mL (≈ 108 µM) | > 50 µg/mL | > 100 µg/mL | > 100 µg/mL | > 100 µg/mL | > 100 µg/mL | > 100 µg/mL | 50 µg/mL (≈ 270 µM) | > 100 µg/mL | 100 µg/mL (≈ 540 µM) | 5 µg/mL (≈ 27 µM) |  |  | 
